Values of other authors as cited in patent US20040063167A1, “Minimising calibration problems of in vivo glucose sensors” (priority 2002, published 2004).

Tested on: animal, plant and bacterial cells in culture

OO [H2O2, Hydrogen peroxide]
levels of H2O2 that seem to have limited cytotoxicity (many cell types, "at or below about"): 20 to 50 µM | levels of H2O2 described as being cytotoxic (wide range of animal, plant and bacterial cells in culture, "usually"): ≥ 50 µM
